Reference: PubChem BioAssay AID330 (DTP/NCI, 2004)
Several values for one entry are separate records, joined by “and”; a condition that tells them apart may be missing. Equal entries are not always repeated. Inconclusive results and toxic doses are left out.

System: P388 leukemia ip, CD2F1 mice, survival T/C
Test: NCI In Vivo Anticancer Drug Screen. Data for tumor model P388 Leukemia (intraperitoneal) in CD2F1 (CDF1) mice
Conditions: endpoint: median survival time, higher = longer survival
How it was run: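 Mice carrying the transplanted tumor received test compound or vehicle. Survival was recorded in each group, and the value is the treated-group measurement divided by that of the vehicle-treated control group.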

[1] = dose: 60.0 mg/kg/injection, schedule: Q01DX005 (ip), vehicle: saline with Tween-80
[2] = dose: 120.0 mg/kg/injection, schedule: Q01DX005 (ip), vehicle: saline with Tween-80
[3] = dose: 240.0 mg/kg/injection, schedule: Q01DX005 (ip), vehicle: saline with Tween-80
[4] = dose: 50.0 mg/kg/injection, schedule: Q01DX009 (ip), vehicle: saline
[5] = dose: 100.0 mg/kg/injection, schedule: Q01DX009 (ip), vehicle: saline
[6] = dose: 50.0 mg/kg/injection, schedule: Q01DX005 (ip), vehicle: saline with Tween-80
[7] = dose: 100.0 mg/kg/injection, schedule: Q01DX005 (ip), vehicle: saline with Tween-80
[8] = dose: 200.0 mg/kg/injection, schedule: Q01DX005 (ip), vehicle: saline with Tween-80
[9] = dose: 25.0 mg/kg/injection, schedule: Q01DX009 (ip), vehicle: Klucel (hydroxypropylcellulose) (HPC)
[10] = dose: 50.0 mg/kg/injection, schedule: Q01DX009 (ip), vehicle: Klucel (hydroxypropylcellulose) (HPC)
[11] = dose: 100.0 mg/kg/injection, schedule: Q01DX009 (ip), vehicle: Klucel (hydroxypropylcellulose) (HPC)
[12] = dose: 50.0 mg/kg/injection, schedule: Q01DX009 (ip), vehicle: saline with Tween-80
[13] = dose: 100.0 mg/kg/injection, schedule: Q01DX009 (ip), vehicle: saline with Tween-80
[14] = dose: 100.0 mg/kg/injection, schedule: Q04DX003 (ip), vehicle: saline with Tween-80
[15] = dose: 200.0 mg/kg/injection, schedule: Q04DX003 (ip), vehicle: saline with Tween-80
[16] = dose: 200.0 mg/kg/injection, schedule: Q01DX009 (ip), vehicle: saline
[17] = dose: 25.0 mg/kg/injection, schedule: Q01DX009 (ip), vehicle: saline with Tween-80

SMILES: NC(=O)C(=O)NNC(=O)CCn1[nH]c(=O)c(Cl)c(Cl)c1=O
- T/C [1]: 100 % of control
- T/C [2]: 103 % of control
- T/C [3]: 98 % of control

SMILES: COc1ccc(CC(N)c2ccccc2)cc1 (stereo unspecified)
- T/C [4]: 96 % of control
- T/C [5]: 98 % of control

SMILES: O=C(CSc1ccccn1)C1=S=C2C=CC=CN2C1=O
- T/C [6]: 92 % of control
- T/C [7]: 95 % of control
- T/C [8]: 93 % of control

SMILES: CC(=O)OCC1(C)ON=C2CCCCC21 (stereo unspecified)
- T/C (dose: 100.0 mg/kg/injection, schedule: Q01DX001 (ip), vehicle: saline with Tween-80): 94 % of control
- T/C (dose: 200.0 mg/kg/injection, schedule: Q01DX001 (ip), vehicle: saline with Tween-80): 104 % of control
- T/C (dose: 400.0 mg/kg/injection, schedule: Q01DX001 (ip), vehicle: saline with Tween-80): 94 % of control

SMILES: Cc1cc(C)c(CC(=O)O)c(C)c1
- T/C [9]: 111 % of control
- T/C [10]: 106 % of control
- T/C [11]: 105 % of control
- T/C (dose: 200.0 mg/kg/injection, schedule: Q01DX009 (ip), vehicle: Klucel (hydroxypropylcellulose) (HPC)): 107 % of control

SMILES: CCS/C(=C/[P+](c1ccccc1)(c1ccccc1)c1ccccc1)SC
- T/C (dose: 6.25 mg/kg/injection, schedule: Q01DX005 (ip), vehicle: saline with Tween-80): 101 % of control

SMILES: COc1ccc(/C(=N\O)c2nccc3cc(OC)c(OC)cc23)cc1OC
- T/C (dose: 15.0 mg/kg/injection, schedule: Q01DX005 (ip), vehicle: saline with Tween-80): 116 % of control
- T/C (dose: 30.0 mg/kg/injection, schedule: Q01DX005 (ip), vehicle: saline with Tween-80): 105 % of control
- T/C [1]: 99 % of control and 92 % of control

SMILES: CC1(C)COC(Cc2ccccc2)=N1
- T/C [12]: 100 % of control
- T/C (dose: 50.0 mg/kg/injection, schedule: Q04DX003 (ip), vehicle: saline with Tween-80): 100 % of control
- T/C [13]: 104 % of control
- T/C [14]: 95 % of control
- T/C (dose: 200.0 mg/kg/injection, schedule: Q01DX009 (ip), vehicle: saline with Tween-80): 100 % of control
- T/C [15]: 100 % of control

SMILES: CC1=CCCC(C(C)O)O1 (stereo unspecified)
- T/C (dose: 6.25 mg/kg/injection, schedule: Q01DX009 (ip), vehicle: saline): 107 % of control
- T/C (dose: 12.5 mg/kg/injection, schedule: Q01DX009 (ip), vehicle: saline): 104 % of control
- T/C (dose: 25.0 mg/kg/injection, schedule: Q01DX009 (ip), vehicle: saline): 105 % of control
- T/C [16]: 87 % of control

SMILES: CC(=O)OCCN1CCN(CC/C=C2\c3ccccc3Sc3ccc(Cl)cc32)CC1
- T/C (dose: 6.25 mg/kg/injection, schedule: Q01DX009 (ip), vehicle: saline with Tween-80): 109 % of control
- T/C (dose: 12.5 mg/kg/injection, schedule: Q01DX009 (ip), vehicle: saline with Tween-80): 113 % of control
- T/C [17]: 113 % of control

SMILES: COc1ccc(CNC(=O)C#CCOC2CCCCO2)cc1 (stereo unspecified)
- T/C (dose: 12.5 mg/kg/injection, schedule: Q01DX005 (ip), vehicle: saline with Tween-80): 91 % of control
- T/C (dose: 25.0 mg/kg/injection, schedule: Q01DX005 (ip), vehicle: saline with Tween-80): 90 % of control
- T/C [6]: 86 % of control
- T/C [8]: 86 % of control

SMILES: [CH3][Sn]1([CH3])[O]C(=O)C(=O)[O]1
- T/C (dose: 6.25 mg/kg/injection, schedule: Q01DX001 (ip), vehicle: Klucel (hydroxypropylcellulose) (HPC)): 105 % of control
- T/C (dose: 12.5 mg/kg/injection, schedule: Q01DX001 (ip), vehicle: Klucel (hydroxypropylcellulose) (HPC)): 102 % of control
- T/C (dose: 25.0 mg/kg/injection, schedule: Q01DX001 (ip), vehicle: Klucel (hydroxypropylcellulose) (HPC)): 101 % of control

SMILES: C=Cc1ccccc1N/N=C(\Cl)C(=O)OCC
- T/C (dose: 100.0 mg/kg/injection, schedule: Q04DX002 (ip), vehicle: saline with Tween-80): 108 % of control
- T/C (dose: 200.0 mg/kg/injection, schedule: Q04DX002 (ip), vehicle: saline with Tween-80): 113 % of control

SMILES: CCCCN(CCCC)CCCN(CCCOS(C)(=O)=O)CCCOS(C)(=O)=O
- T/C (dose: 20.0 mg/kg/injection, schedule: Q01DX009 (ip), vehicle: saline): 181 % of control and 185 % of control
- T/C (dose: 40.0 mg/kg/injection, schedule: Q01DX009 (ip), vehicle: saline): 231 % of control and 236 % of control

SMILES: N#C/C(=C\c1ccccc1Cl)C(N)=S
- T/C [4]: 100 % of control
- T/C [5]: 101 % of control
- T/C [16]: 97 % of control

SMILES: Cc1ccc(C(=O)CC2=NC3NN(c4ccccc4)C(=O)C3=C2CC(=O)c2ccc(C)cc2)cc1 (stereo unspecified)
- T/C (dose: 60.0 mg/kg/injection, schedule: Q01DX005 (ip), vehicle: suspension in saline): 94 % of control
- T/C (dose: 120.0 mg/kg/injection, schedule: Q01DX005 (ip), vehicle: suspension in saline): 98 % of control
- T/C (dose: 240.0 mg/kg/injection, schedule: Q01DX005 (ip), vehicle: suspension in saline): 102 % of control

SMILES: CC(=O)c1nc(-c2ccccc2)[nH]c1C
- T/C [17]: 101 % of control
- T/C [12]: 104 % of control
- T/C [13]: 105 % of control
- T/C [14]: 99 % of control
- T/C [15]: 90 % of control

SMILES: O=C(O)c1cc2ccc3cccc4ccc(c1)c2c34
- T/C [6]: 96 % of control
- T/C [7]: 102 % of control

SMILES: COc1cc(C)c(O)c(C/C=C(\C)CC(=O)[C@H]2[C@]3(C)CCC[C@]3(C)[C@@]23C[C@H](O)C(C)(C)O3)c1
- T/C (dose: 8.75 mg/kg/injection, schedule: Q01DX005 (ip), vehicle: saline with Tween-80): 95 % of control
- T/C (dose: 17.5 mg/kg/injection, schedule: Q01DX005 (ip), vehicle: saline with Tween-80): 92 % of control
- T/C (dose: 35.0 mg/kg/injection, schedule: Q01DX005 (ip), vehicle: saline with Tween-80): 96 % of control

SMILES: C[n+]1noc([O-])c1-c1ccccc1
- T/C [12]: 102 % of control
- T/C [13]: 104 % of control

SMILES: CC(Cl)CN1CCOC1=O (stereo unspecified)
- T/C (dose: 12.5 mg/kg/injection, schedule: Q01DX001 (ip), vehicle: saline): 106 % of control
- T/C (dose: 25.0 mg/kg/injection, schedule: Q01DX001 (ip), vehicle: saline): 96 % of control
- T/C (dose: 50.0 mg/kg/injection, schedule: Q01DX001 (ip), vehicle: saline): 105 % of control
- T/C (dose: 100.0 mg/kg/injection, schedule: Q01DX001 (ip), vehicle: saline): 102 % of control

SMILES: CC(NC(=O)C(C)NC(=O)OC(C)(C)C)C(=O)O (stereo unspecified)
- T/C [6]: 100 % of control
- T/C [7]: 101 % of control
- T/C [8]: 101 % of control

SMILES: CC1SCC(=O)N1c1nncs1 (stereo unspecified)
- T/C (dose: 30.0 mg/kg/injection, schedule: Q01DX005 (ip), vehicle: Klucel (hydroxypropylcellulose) (HPC)): 101 % of control and 104 % of control
- T/C (dose: 60.0 mg/kg/injection, schedule: Q01DX005 (ip), vehicle: Klucel (hydroxypropylcellulose) (HPC)): 102 % of control and 106 % of control
- T/C (dose: 120.0 mg/kg/injection, schedule: Q01DX005 (ip), vehicle: Klucel (hydroxypropylcellulose) (HPC)): 106 % of control and 123 % of control
- T/C (dose: 240.0 mg/kg/injection, schedule: Q01DX005 (ip), vehicle: Klucel (hydroxypropylcellulose) (HPC)): 123 % of control
- T/C (dose: 480.0 mg/kg/injection, schedule: Q01DX005 (ip), vehicle: Klucel (hydroxypropylcellulose) (HPC)): 162 % of control

SMILES: Cc1ccc(O)c(C2CC(=O)NC(NC#N)=N2)c1 (stereo unspecified)
- T/C [4]: 103 % of control
- T/C [5]: 101 % of control
- T/C [16]: 101 % of control

SMILES: COc1cc(O)c2c(=O)c3c(O)c(O)ccc3oc2c1
- T/C (dose: 0.63 mg/kg/injection, schedule: Q01DX009 (ip), vehicle: saline): 108 % of control
- T/C (dose: 1.25 mg/kg/injection, schedule: Q01DX009 (ip), vehicle: saline): 110 % of control
- T/C (dose: 2.5 mg/kg/injection, schedule: Q01DX009 (ip), vehicle: saline): 101 % of control
- T/C (dose: 5.0 mg/kg/injection, schedule: Q01DX009 (ip), vehicle: saline): 100 % of control

SMILES: CN(C)CC1CC1N1c2ccccc2Sc2ccc(Cl)cc21 (stereo unspecified)
- T/C [9]: 99 % of control
- T/C [10]: 101 % of control and 112 % of control
- T/C [11]: 101 % of control and 112 % of control

SMILES: COc1ccc2c(c1)c(CO)c(CO)c[n+]2[O-]
- T/C [1]: 100 % of control
- T/C [2]: 96 % of control
- T/C [3]: 102 % of control
